Read-outs that look alike come from different tables or passages of the source. Bridge positions count the residues as written; N and C are the ends. Square brackets hold non-standard residues; d marks the D form. Peptide text beside a SMILES is read from it. * marks the point of attachment. NH(3,5-(CF3)2-benzyl) = FC(F)(F)c1cc(CN*)cc(C(F)(F)F)c1; X1 = OC[C@H]1OC(*)[C@H](O)[C@@H](O)[C@@H]1O; Dmt = Cc1cc(O)cc(C)c1C[C@H](N)C(=O)O; dPen = CC(C)(S)[C@@H](N)C(=O)O; Nle = CCCC[C@H](N)C(=O)O
Assays:
[1] = biological target: T1, rat μ opioid receptors (rMOR) (Rattus norvegicus, UniProt P33535); experiment: biochemical; type: biochemical
T1 construct: expressed in transfected cells; host or cells: HN9.10 neuroblastoma cell line, pCDNA3, neomycin-selected clones

[2] = In vitro stability in rat plasma at 37° C.; type: in vitro ADME; details: for half-life at 50 μg/mL: rat, rat plasma, FIG. 47, read-out: T1/2 in rat plasma; for stability in the rat plasma: words
Description: The derivative compounds were tested for their metabolite stability. The compounds were incubated in rat plasma at 37° C., and aliquots were withdrawn at various time points and analyzed by HPLC to determine the concentration of remaining compound derivatives (FIGS. 15-16, 36, and 47-48).
In Vitro Stability of compound derivatives in Rat Plasm (Yamamoto, 2007, J. Am. Chem. Soc. submitted). Stock solution of compounds (50 mg/mL in DMSO) were diluted 1000-fold into rat plasma (Lot 24927, Pel-Freez Biologicals, Rogers, Ak.) to result in an incubation concentration of 50 μg/mL. All samples were incubated at 37° C. for 6 h, and 200 μL of aliquots were withdrawn at 1 h, 2 h, 4 h and 6 h. […] The samples were run in triplicate. Discussion.

[3] = biological target: T2, rat NK1 (rNK1) receptor (Rattus norvegicus, UniProt P14600); experiment: Radioligand competition binding, [3H]substance P, rNK1/CHO membranes
T2 construct: expressed in transfected cells; host or cells: CHO (rNK-1/CHO cell line from Dr. James Krause)

[4] = biological target: T3, human NK1 receptor (hNK1) (Homo sapiens, UniProt P25103); experiment: Radioligand competition binding, [3H]-Substance P, hNK1
T3 construct: expressed in transfected cells

[5] = biological target: T4, Substance P receptors (guinea pig NK1) (Cavia porcellus, UniProt P30547); experiment: Guinea pig isolated ileum (GPI) assay with substance P stimulation in presence of 1 μM naloxone; details: Table 39; at 30 nM
T4 construct: from tissue; host or cells: guinea pig (Hartley) ileum LMMP, 1 μM naloxone present

[6] = biological target: T1, rat μ opioid receptors (rMOR); experiment: Radioligand competition binding, [3H]DAMGO, rMOR membranes
[7] = biological target: T5, δ opioid receptors (MVD) (Mus musculus, UniProt P32300); experiment: Mouse isolated vas deferens (MVD) assay, opioid agonist
T5 construct: from tissue; host or cells: mouse (ICR) isolated vas deferens

[8] = Table 39, read-out: GTP binding rMOR Emax

T2 sequence (P14600 whole entry): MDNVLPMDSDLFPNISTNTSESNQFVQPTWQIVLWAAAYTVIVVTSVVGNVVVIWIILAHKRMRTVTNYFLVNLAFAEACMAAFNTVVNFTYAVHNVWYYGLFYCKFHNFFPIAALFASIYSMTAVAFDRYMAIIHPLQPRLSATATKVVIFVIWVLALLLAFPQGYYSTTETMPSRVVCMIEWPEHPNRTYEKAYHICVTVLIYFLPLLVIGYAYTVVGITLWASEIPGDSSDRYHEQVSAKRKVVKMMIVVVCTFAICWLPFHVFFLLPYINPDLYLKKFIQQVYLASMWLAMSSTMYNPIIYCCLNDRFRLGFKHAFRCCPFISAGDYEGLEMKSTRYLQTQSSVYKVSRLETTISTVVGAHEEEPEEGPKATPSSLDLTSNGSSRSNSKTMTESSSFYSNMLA
T3 sequence (P25103 whole entry): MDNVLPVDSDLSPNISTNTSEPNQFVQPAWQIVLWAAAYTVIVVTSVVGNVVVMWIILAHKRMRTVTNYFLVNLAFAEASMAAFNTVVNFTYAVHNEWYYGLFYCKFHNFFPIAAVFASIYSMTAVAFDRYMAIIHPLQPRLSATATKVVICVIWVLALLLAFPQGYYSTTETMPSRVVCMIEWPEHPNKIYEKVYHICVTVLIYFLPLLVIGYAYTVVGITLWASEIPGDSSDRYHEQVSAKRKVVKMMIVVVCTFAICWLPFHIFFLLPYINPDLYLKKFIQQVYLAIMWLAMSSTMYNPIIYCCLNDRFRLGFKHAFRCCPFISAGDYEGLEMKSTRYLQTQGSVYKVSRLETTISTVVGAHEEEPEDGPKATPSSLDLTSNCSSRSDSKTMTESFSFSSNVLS
T1 sequence (P33535 whole entry): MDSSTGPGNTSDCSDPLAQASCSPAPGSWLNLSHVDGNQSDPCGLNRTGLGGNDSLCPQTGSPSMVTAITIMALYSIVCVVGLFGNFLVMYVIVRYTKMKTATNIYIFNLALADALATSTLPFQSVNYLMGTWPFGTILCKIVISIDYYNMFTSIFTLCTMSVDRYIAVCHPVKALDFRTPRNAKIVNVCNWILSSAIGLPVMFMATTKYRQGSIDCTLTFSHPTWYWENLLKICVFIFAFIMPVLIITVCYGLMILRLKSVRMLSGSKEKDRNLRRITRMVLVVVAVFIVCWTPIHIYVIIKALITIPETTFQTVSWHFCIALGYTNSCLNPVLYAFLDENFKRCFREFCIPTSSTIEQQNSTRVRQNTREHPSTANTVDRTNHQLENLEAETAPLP
T4 sequence (P30547 whole entry): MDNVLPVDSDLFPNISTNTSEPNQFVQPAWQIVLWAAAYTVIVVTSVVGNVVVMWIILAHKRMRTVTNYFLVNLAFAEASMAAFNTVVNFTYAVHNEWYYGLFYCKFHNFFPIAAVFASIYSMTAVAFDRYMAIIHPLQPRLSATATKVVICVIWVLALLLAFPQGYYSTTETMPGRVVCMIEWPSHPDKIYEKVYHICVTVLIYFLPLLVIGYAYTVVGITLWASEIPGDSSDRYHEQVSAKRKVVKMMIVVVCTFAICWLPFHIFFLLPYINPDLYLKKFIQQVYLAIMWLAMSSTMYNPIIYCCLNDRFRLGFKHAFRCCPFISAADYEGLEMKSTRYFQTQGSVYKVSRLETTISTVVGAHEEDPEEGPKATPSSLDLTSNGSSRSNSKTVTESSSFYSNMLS
T5 sequence (P32300 whole entry): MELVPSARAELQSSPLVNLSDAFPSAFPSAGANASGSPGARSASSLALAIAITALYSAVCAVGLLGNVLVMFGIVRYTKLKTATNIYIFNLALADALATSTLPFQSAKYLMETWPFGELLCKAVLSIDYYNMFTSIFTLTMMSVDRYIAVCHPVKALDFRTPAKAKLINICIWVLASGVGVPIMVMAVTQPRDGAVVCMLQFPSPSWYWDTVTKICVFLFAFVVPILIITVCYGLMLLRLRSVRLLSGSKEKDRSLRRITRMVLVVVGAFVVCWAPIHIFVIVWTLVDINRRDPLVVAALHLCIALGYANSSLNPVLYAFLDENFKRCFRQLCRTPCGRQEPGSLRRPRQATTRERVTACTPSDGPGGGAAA

SMILES: CCCC[C@@H]1NC(=O)[C@H](Cc2ccccc2)NC(=O)CNC(=O)[C@H](NC(=O)[C@@H](N)Cc2ccc(O)cc2)C(C)(C)SSC(C)(C)[C@H](C(=O)N[C@@H](Cc2c[nH]c3ccccc23)C(=O)NCc2cc(C(F)(F)F)cc(C(F)(F)F)c2)NC(=O)[C@@H]2CCCN2C1=O [TY048] (H-Y[dPen]GF[Nle]P[dPen]W-{NH(3,5-(CF3)2-benzyl)}; disulfide 2-7; N-terminus assumed)
- Emax [1, 8]: 29%
- half-life at 50 μg/mL [2]: > 24 h
- Ki ([3]; Table 23, read-out: Affinity rNK1 (Ki; nM)): 26 nM

SMILES: CC(C)C[C@H](NC(=O)[C@@H]1CCCN1C(=O)[C@@H]1NC(=O)[C@H](Cc2ccccc2)NC(=O)CNC(=O)[C@H](NC(=O)[C@@H](N)Cc2ccc(O)cc2)C(C)(C)SSC1(C)C)C(=O)N[C@@H](Cc1c[nH]c2ccccc12)C(=O)NCc1cc(C(F)(F)F)cc(C(F)(F)F)c1 [TY049]
- Ki [4]: 0.18 nM
- Emax ([1]; read-out: GTP binding rMOR Emax): 25%
- half-life at 50 μg/mL [2]: > 24 h
- Ki ([3]; Affinity rNK1 (Ki; nM), Table 23): 4.54 nM

SMILES: CCCC[C@H](NC(=O)[C@H](Cc1ccccc1)NC(=O)CNC(=O)[C@@H](C)NC(=O)[C@@H](N)Cc1ccc(O)cc1)C(=O)N1CCC[C@H]1C(=O)N[C@@H](CC(C)C)C(=O)N[C@@H](COC1O[C@H](CO)[C@@H](O)[C@H](O)[C@H]1O)C(=O)N[C@@H](Cc1c[nH]c2ccccc12)C(=O)NCc1cc(C(F)(F)F)cc(C(F)(F)F)c1 (stereo partly drawn) [TY055]
- GPI/LMMP SP Agonist (IC50; nM) [5]: none
- Ki [6]: 30 nM
- Ki [4]: 0.052 nM
- stability in the rat plasma [2]: stable
- IC50 [7]: 17.4 nM

SMILES: CCCC[C@H](NC(=O)[C@H](Cc1ccccc1)NC(=O)CNC(=O)[C@@H](C)NC(=O)[C@@H](N)Cc1c(C)cc(O)cc1C)C(=O)N1CCC[C@H]1C(=O)N[C@@H](COC1O[C@H](CO)[C@@H](O)[C@H](O)[C@H]1O)C(=O)N[C@@H](Cc1c[nH]c2ccccc12)C(=O)NCc1cc(C(F)(F)F)cc(C(F)(F)F)c1 (stereo partly drawn) [TY056] (H-[Dmt][dA]GF[Nle]PS(X1)W-{NH(3,5-(CF3)2-benzyl)}; N-terminus assumed)
- GPI/LMMP SP Agonist (IC50; nM) [5]: none
- Ki [6]: 1.9 nM
- Ki [4]: 0.0017 nM
- EC50 ([1]; Table 25, read-out: GTP binding rMOR EC50): 44.9 nM
- Emax ([1]; Table 25, read-out: GTP binding rMOR Emax (%)): 66%
- Emax [1, 8]: 66%
- stability in the rat plasma [2]: stable
- Ki ([3]; Affinity rNK1 (Ki; nM), Table 25): 10 nM
- IC50 [7]: 3.62 nM
